Assay [1] deals with T1, ThyX protein of H. pylori (Helicobacter pylori, UniProt O26061).
T1 construct: made in house
Kind of assay: Tritium release from [5-3H]dUMP by purified ThyX (thymidylate synthase activity). It counts as biochemical. The note with it: for inhibition of ThyX activity: result in words. From the text: In dTMP formation, the loss of tritium from […] in the solvent is a compulsory intermediary, allowing to quantify the thymidylate-synthetase activity after removal of radioactive nucleotides from the reaction mixtures (ROBERTS, 1966). In order to tackle the biochemical mechanism, wherein ThyX could circumvent the requirement for the ThyA in the de novo synthesis of thymydilate, the purified ThyX protein was used to the same extent.
N^5,N^10—CH2H4folate was non-enzymatically formed, through incubation of 2 mM of tetrahydrofolic acid (Sigma®) with 100 mM of β-mercaptoethanol and 20 mM of formol for 30 minutes in the dark and at room temperature. […] The control reactions were achieved under analogous conditions, without tetrahydrofolic acid. […], a specific activity at 16,2 Ci/mmol (Amersham) and stopped after 60 minutes at 37° C. by two extractions with 250 μl of active carbon [10% (weight/volume) of Norit A] in 2% trichloroacetic acid so as to remove the nucleotides from the reaction mixtures. The remanent radioactivity in the supernatant was determined according to MYLLYKALLIO (2000).

Assay [2] has as its system transformants containing thyX in the E.coli X2913(ΔthyA) strain. The note with it: only high trimethoprim concentrations inhibit.

T1 sequence (O26061 whole entry): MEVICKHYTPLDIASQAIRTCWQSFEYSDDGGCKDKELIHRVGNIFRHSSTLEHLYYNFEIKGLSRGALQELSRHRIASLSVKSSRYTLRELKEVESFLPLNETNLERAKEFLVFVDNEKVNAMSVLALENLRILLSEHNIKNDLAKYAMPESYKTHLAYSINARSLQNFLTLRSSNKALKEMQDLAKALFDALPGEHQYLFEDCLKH

For the compound `Nc1nc2c(c(=O)[nH]1)N1CN(c3ccc(C(=O)N[C@@H](CCC(=O)O)C(=O)O)cc3)CC1CN2` (stereo partly shown) [CH2H4folate], the “concentration sufficient for saturating the release activity of tritium” value in assay [1] (complete reaction conditions, 60 minutes incubation) was 100 µM. With `O=c1ccn([C@@H]2O[C@H](COP(=O)(O)O)[C@@H](O)[C@H]2O)c(=O)[nH]1` [UMP], the “nmol of released ^3H/mg of protein (60 minute incubation)” value in assay [1] (complete test plus 500 μM of the added nucleotide, 9 μM 3H-dUMP, 60 minute incubation) is listed as 64.4 nmol of released ^3H/mg of protein. Moreover, the “released ^3H as % of the complete test” value in assay [1] (complete test plus 500 μM of the added nucleotide, complete = 100%, 60 minute incubation) was found to be 102.2%. Further, in assay [1] (simple competition experiments), the “use as substrate by the ThyX activity (competition experiments)” value is recorded as “does not use UMP as a substrate”.

For the compound `Cc1cn([C@H]2C[C@H](O)[C@@H](COP(=O)(O)O)O2)c(=O)[nH]c1=O` [dTMP, thymidine 5′-monophosphate], the “inhibition of ThyX activity” value in assay [1] is given as “inhibited”.

Regarding `O=c1[nH]c(=O)n([C@H]2C[C@H](O)[C@@H](COP(=O)(O)O)O2)cc1F` [fluoro-dUMP], the “inhibition of ThyX activity” value in assay [1] is on record as “inhibitor”. Consider `COc1cc(Cc2cnc(N)nc2N)cc(OC)c1OC` [trimethoprim], for which the “inhibition of growth of thyX transformants” value in assay [2] is reported as “inhibited”.

Source of the values: patent US20040248195A1, “Uses of a thyx polypeptide or a nucleic acid encoding such a polypeptide, in particular for screening anti-bacterial or anti-viral compounds” (priority 2001, published 2004).
